Reference: patent US9370523B2, “Method for diagnosing or prediagnosing a beta-amyloidopathy or an alpha-synucleopathy” (Immungenetics AG, priority 2010, dated 2016)

System: ABCC1 transporter
Assay: Activation of the ABCC1 transporter

Question: `CCSc1ccc2c(c1)N(CCCN1CCN(C)CC1)c1ccccc1S2` [thiethylperazine, 2-(ethylthio)-10-[3-(4-methylpiperazin-1-yl)propyl]-10H-phenothiazine] was tested. Which “activation of the ABCC1 transporter, in words” value did it give?
Answer: particularly efficient activator of the ABCC1 transporter
